The results in this text go back to ChEMBL document CHEMBL3244239, “Potential antitumor agents. Synthesis, reactivity, and cytoxicity of alpha-methylene carbonyl compounds” (1978).

Structures are written as SMILES. Values after ≈ are worked out from the molar mass of the structure shown.

The test concerns KB. The test is described as follows: Cytotoxicity against human KB cells. The class given is functional. To be noted: read-out: ED50 (the source's name).

In the case of `O=C1OCC/C1=C\CCC/C=C1\CCOC1=O`, the EC50 is greater than 100 µg/mL.

Turning to `O=C1OCC/C1=C\OCCCO/C=C1\CCOC1=O`, the EC50 is greater than 100 µg/mL.

On to `C=C1CC(CCCC2CC(=C)C(=O)O2)OC1=O` (stereo not drawn), for which the EC50 stood at 4 µg/mL (≈ 16.9 µM).

In the case of `O=C1OCC/C1=C\OC(=O)c1ccccc1`, the EC50 is 100 µg/mL (≈ 458 µM).

As to `C=C1C(=O)O[C@@H]2CCCC[C@@H]12` (relative stereo), the EC50 is 38 µg/mL (≈ 250 µM).

On to `C=C1CCOC1=O` [TULIPALINE A], for which the EC50 was 16 µg/mL (≈ 163 µM).

On to `C=C1C(=O)O[C@@H]2[C@@H]3[C@H](C[C@H]12)[C@@H]1C=C[C@@H]3C1`, for which the EC50 amounted to 1 µg/mL (≈ 4.94 µM).

Consider `C=C(C)C(=O)O[C@H]1CC2=C[C@@H](C[C@@]3(C)O[C@@H]3[C@H]3OC(=O)C(=C)[C@@H]31)OC2=O` [ELEPHANTOPIN], for which the EC50 worked out at 1 µg/mL (≈ 2.77 µM).
